Experimental data: the supplement of paper PMC10307832

Key:
Experiment in all cases: relative viability (nuclei count vs DMSO), 5 days (fraction); higher = more cells survive
NCI-H1792 = test system: NCI-H1792
In short: (§1)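 Five library-drug doses in √10 steps were combined with a fixed anchor-drug dose, or a single drug was given alone, by pin tool to lung cancer cell lines in 1536-well plates the day after seeding. Nuclei were stained and counted after 5 days. Relative viability is the nuclei count in treated wells over that in vehicle wells, taken as the median of duplicate plates.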

NCI-H1651 = test system: NCI-H1651
In short: as §1

RERF-LC-KJ = test system: RERF-LC-KJ
In short: as §1

PC-14 = test system: PC-14
In short: as §1

NCI-H3122 = test system: NCI-H3122
In short: as §1

NCI-H460 = test system: NCI-H460
In short: as §1

NCI-H727 = test system: NCI-H727
In short: as §1

NCI-H522 = test system: NCI-H522
In short: as §1

SW 900 = test system: SW 900
In short: as §1

LCLC-103H = test system: LCLC-103H
In short: as §1

NCI-H1355 = test system: NCI-H1355
In short: as §1

NCI-H2347 = test system: NCI-H2347
In short: as §1

NCI-H1755 = test system: NCI-H1755
In short: as §1

NCI-H322M = test system: NCI-H322M
In short: as §1

LXF-289 = test system: LXF-289
In short: as §1

NCI-H1915 = test system: NCI-H1915
In short: as §1

NCI-H441 = test system: NCI-H441
In short: as §1

NCI-H596 = test system: NCI-H596
In short: as §1

COc1nc(C)cnc1NS(=O)(=O)c1cccnc1-c1ccc(-c2nnco2)cc1 [Zibotentan] + NC(=O)Nc1cc(-c2cccc(F)c2)sc1C(=O)N[C@H]1CCCNC1 [AZD7762] (partner 0.2 µM)
relative viability (NCI-H1792; first compound 0.08 µM): 0.899 | relative viability (NCI-H1792; first compound 0.253 µM): 0.604 | relative viability (NCI-H1792; first compound 0.8 µM): 0.373 | relative viability (NCI-H1792; first compound 2.53 µM): 0.822 | relative viability (NCI-H1651; first compound 0.08 µM): 0.448 | relative viability (NCI-H1651; first compound 0.253 µM): 0.389 | relative viability (NCI-H1651; first compound 0.8 µM): 0.446 | relative viability (NCI-H1651; first compound 2.53 µM): 0.419 | relative viability (RERF-LC-KJ; first compound 0.08 µM): 1.16 | relative viability (RERF-LC-KJ; first compound 0.253 µM): 0.938 | relative viability (RERF-LC-KJ; first compound 0.8 µM): 0.841 | relative viability (RERF-LC-KJ; first compound 2.53 µM): 0.909 | relative viability (PC-14; first compound 0.08 µM): 0.445 | relative viability (PC-14; first compound 0.253 µM): 0.264 | relative viability (PC-14; first compound 0.8 µM): 0.324 | relative viability (PC-14; first compound 2.53 µM): 0.369 | relative viability (NCI-H3122; first compound 0.08 µM): 1.01 | relative viability (NCI-H3122; first compound 0.253 µM): 0.999 | relative viability (NCI-H3122; first compound 0.8 µM): 0.915 | relative viability (NCI-H3122; first compound 2.53 µM): 0.966 | relative viability (NCI-H460; first compound 0.08 µM): 0.784 | relative viability (NCI-H460; first compound 0.253 µM): 0.539 | relative viability (NCI-H460; first compound 0.8 µM): 0.251 | relative viability (NCI-H460; first compound 2.53 µM): 0.749 | relative viability (NCI-H727; first compound 0.08 µM): 0.575 | relative viability (NCI-H727; first compound 0.253 µM): 0.572 | relative viability (NCI-H727; first compound 0.8 µM): 0.497 | relative viability (NCI-H727; first compound 2.53 µM): 0.296 | relative viability (NCI-H522; first compound 0.08 µM): 0.835 | relative viability (NCI-H522; first compound 0.253 µM): 0.862 | relative viability (NCI-H522; first compound 0.8 µM): 0.773 | relative viability (NCI-H522; first compound 2.53 µM): 0.856 | relative viability (SW 900; first compound 0.08 µM): 0.68 | relative viability (SW 900; first compound 0.253 µM): 0.561 | relative viability (SW 900; first compound 0.8 µM): 0.495 | relative viability (SW 900; first compound 2.53 µM): 0.725 | relative viability (LCLC-103H; first compound 0.08 µM): 0.77 | relative viability (LCLC-103H; first compound 0.253 µM): 0.786 | relative viability (LCLC-103H; first compound 0.8 µM): 0.778 | relative viability (LCLC-103H; first compound 2.53 µM): 0.752 | relative viability (NCI-H1355; first compound 0.08 µM): 0.81 | relative viability (NCI-H1355; first compound 0.253 µM): 0.858 | relative viability (NCI-H1355; first compound 0.8 µM): 0.432 | relative viability (NCI-H1355; first compound 2.53 µM): 0.774 | relative viability (NCI-H2347; first compound 0.08 µM): 0.733 | relative viability (NCI-H2347; first compound 0.253 µM): 0.723 | relative viability (NCI-H2347; first compound 0.8 µM): 0.742 | relative viability (NCI-H2347; first compound 2.53 µM): 0.945 | relative viability (NCI-H1755; first compound 0.08 µM): 0.452 | relative viability (NCI-H1755; first compound 0.253 µM): 0.464 | relative viability (NCI-H1755; first compound 0.8 µM): 0.387 | relative viability (NCI-H1755; first compound 2.53 µM): 0.471 | relative viability (NCI-H322M; first compound 0.08 µM): 0.605 | relative viability (NCI-H322M; first compound 0.253 µM): 0.551 | relative viability (NCI-H322M; first compound 0.8 µM): 0.364 | relative viability (NCI-H322M; first compound 2.53 µM): 0.605 | relative viability (LXF-289; first compound 0.08 µM): 1.07 | relative viability (LXF-289; first compound 0.253 µM): 1.05 | relative viability (LXF-289; first compound 0.8 µM): 1.06 | relative viability (LXF-289; first compound 2.53 µM): 1.08 | relative viability (NCI-H1915; first compound 0.08 µM): 0.836 | relative viability (NCI-H1915; first compound 0.253 µM): 0.649 | relative viability (NCI-H1915; first compound 0.8 µM): 0.597 | relative viability (NCI-H1915; first compound 2.53 µM): 0.683 | relative viability (NCI-H441; first compound 0.08 µM): 1.3 | relative viability (NCI-H441; first compound 0.253 µM): 1.08 | relative viability (NCI-H441; first compound 0.8 µM): 0.994 | relative viability (NCI-H441; first compound 2.53 µM): 1.12 | relative viability (NCI-H596; first compound 0.08 µM): 1.13 | relative viability (NCI-H596; first compound 0.253 µM): 1.01 | relative viability (NCI-H596; first compound 0.8 µM): 1.06 | relative viability (NCI-H596; first compound 2.53 µM): 1.22

O=c1cc(-c2cccc3c2Sc2ccccc2S3)oc(N2CCOCC2)c1 + NC(=O)Nc1cc(-c2cccc(F)c2)sc1C(=O)N[C@H]1CCCNC1 [AZD7762] (partner 0.2 µM)
relative viability (NCI-H1792; first compound 0.08 µM): 0.541 | relative viability (NCI-H1792; first compound 0.253 µM): 0.632 | relative viability (NCI-H1792; first compound 0.8 µM): 0.549 | relative viability (NCI-H1792; first compound 2.53 µM): 0.55 | relative viability (NCI-H1792; first compound 8 µM): 0.583 | relative viability (NCI-H1651; first compound 0.08 µM): 0.452 | relative viability (NCI-H1651; first compound 0.253 µM): 0.538 | relative viability (NCI-H1651; first compound 0.8 µM): 0.44 | relative viability (NCI-H1651; first compound 2.53 µM): 0.389 | relative viability (NCI-H1651; first compound 8 µM): 0.425 | relative viability (RERF-LC-KJ; first compound 0.08 µM): 0.913 | relative viability (RERF-LC-KJ; first compound 0.253 µM): 1.05 | relative viability (RERF-LC-KJ; first compound 0.8 µM): 0.846 | relative viability (RERF-LC-KJ; first compound 2.53 µM): 0.977 | relative viability (RERF-LC-KJ; first compound 8 µM): 1.02 | relative viability (PC-14; first compound 0.08 µM): 0.338 | relative viability (PC-14; first compound 0.253 µM): 0.45 | relative viability (PC-14; first compound 0.8 µM): 0.264 | relative viability (PC-14; first compound 2.53 µM): 0.263 | relative viability (PC-14; first compound 8 µM): 0.381 | relative viability (NCI-H3122; first compound 0.08 µM): 1.02 | relative viability (NCI-H3122; first compound 0.253 µM): 1.06 | relative viability (NCI-H3122; first compound 0.8 µM): 1.03 | relative viability (NCI-H3122; first compound 2.53 µM): 0.933 | relative viability (NCI-H3122; first compound 8 µM): 1.04 | relative viability (NCI-H460; first compound 0.08 µM): 0.742 | relative viability (NCI-H460; first compound 0.253 µM): 0.695 | relative viability (NCI-H460; first compound 0.8 µM): 0.669 | relative viability (NCI-H460; first compound 2.53 µM): 0.431 | relative viability (NCI-H460; first compound 8 µM): 0.685 | relative viability (NCI-H727; first compound 0.08 µM): 0.501 | relative viability (NCI-H727; first compound 0.253 µM): 0.655 | relative viability (NCI-H727; first compound 2.53 µM): 0.413 | relative viability (NCI-H727; first compound 8 µM): 0.739 | relative viability (NCI-H522; first compound 0.08 µM): 0.821 | relative viability (NCI-H522; first compound 0.253 µM): 0.926 | relative viability (NCI-H522; first compound 0.8 µM): 0.864 | relative viability (NCI-H522; first compound 2.53 µM): 0.654 | relative viability (NCI-H522; first compound 8 µM): 0.813 | relative viability (SW 900; first compound 0.253 µM): 0.862 | relative viability (SW 900; first compound 0.8 µM): 0.719 | relative viability (SW 900; first compound 2.53 µM): 0.525 | relative viability (SW 900; first compound 8 µM): 0.418 | relative viability (LCLC-103H; first compound 0.08 µM): 0.717 | relative viability (LCLC-103H; first compound 0.253 µM): 0.825 | relative viability (LCLC-103H; first compound 0.8 µM): 0.866 | relative viability (LCLC-103H; first compound 2.53 µM): 0.784 | relative viability (LCLC-103H; first compound 8 µM): 0.822 | relative viability (NCI-H1355; first compound 0.08 µM): 0.703 | relative viability (NCI-H1355; first compound 0.253 µM): 0.915 | relative viability (NCI-H1355; first compound 0.8 µM): 0.743 | relative viability (NCI-H1355; first compound 2.53 µM): 0.554 | relative viability (NCI-H1355; first compound 8 µM): 0.756 | relative viability (NCI-H2347; first compound 0.08 µM): 0.738 | relative viability (NCI-H2347; first compound 0.253 µM): 0.798 | relative viability (NCI-H2347; first compound 0.8 µM): 0.799 | relative viability (NCI-H2347; first compound 2.53 µM): 0.749 | relative viability (NCI-H2347; first compound 8 µM): 0.701 | relative viability (NCI-H1755; first compound 0.08 µM): 0.535 | relative viability (NCI-H1755; first compound 0.253 µM): 0.453 | relative viability (NCI-H1755; first compound 0.8 µM): 0.439 | relative viability (NCI-H1755; first compound 2.53 µM): 0.566 | relative viability (NCI-H1755; first compound 8 µM): 0.418 | relative viability (NCI-H322M; first compound 0.08 µM): 0.665 | relative viability (NCI-H322M; first compound 0.253 µM): 0.537 | relative viability (NCI-H322M; first compound 0.8 µM): 0.51 | relative viability (NCI-H322M; first compound 2.53 µM): 0.429 | relative viability (NCI-H322M; first compound 8 µM): 0.534 | relative viability (LXF-289; first compound 0.08 µM): 1.11 | relative viability (LXF-289; first compound 0.253 µM): 1.18 | relative viability (LXF-289; first compound 0.8 µM): 1.15 | relative viability (LXF-289; first compound 2.53 µM): 1.09 | relative viability (LXF-289; first compound 8 µM): 1.12 | relative viability (NCI-H1915; first compound 0.08 µM): 0.716 | relative viability (NCI-H1915; first compound 0.253 µM): 0.761 | relative viability (NCI-H1915; first compound 0.8 µM): 0.795 | relative viability (NCI-H1915; first compound 2.53 µM): 0.681 | relative viability (NCI-H1915; first compound 8 µM): 0.716 | relative viability (NCI-H441; first compound 0.08 µM): 0.965 | relative viability (NCI-H441; first compound 0.253 µM): 1.24 | relative viability (NCI-H441; first compound 0.8 µM): 1.18 | relative viability (NCI-H441; first compound 2.53 µM): 0.941 | relative viability (NCI-H441; first compound 8 µM): 1.21 | relative viability (NCI-H596; first compound 0.08 µM): 1.04 | relative viability (NCI-H596; first compound 0.253 µM): 1.1 | relative viability (NCI-H596; first compound 0.8 µM): 1.15 | relative viability (NCI-H596; first compound 2.53 µM): 1 | relative viability (NCI-H596; first compound 8 µM): 1.22
